Results reported in patent publication US20050203086A1, “Methods of treatment using an EP2 selective receptor agonist” (Pfizer Inc., priority 2004, published 2005).

Biological target: T1, prostaglandin E2 type 2 (EP2) receptors (Homo sapiens, UniProt P43116)
T1 construct: These full length receptors are used to prepare 293S cells expressing the EP1, EP2, EP3 and EP4 receptors; expressed in transfected cells; membranes
Experiment: Assay for Binding to Prostaglandin E2 Receptors (3H-prostaglandin E2 displacement, membranes of transfected 293S cells)
Conditions: concentration displacing 50% of specifically bound 3H-prostaglandin E2, 1 hour at 25° C.
Procedure: Membrane Preparation: All operations are performed at […]. Transfected cells expressing prostaglandin E2 type 1 receptors (EP1), type 2 (EP2), type 3 (EP3) or type 4 (EP4) receptors are harvested and suspended to 2 million cells per ml in Buffer A [50 mM Tris-HCl (pH 7.4), 10 mM MgCl2, 1 mM EDTA, 1 mM Pefabloc peptide, (Boehringer Mannheim Corp., Indianapolis, Ind.), 10 uM Phosporamidon peptide, (Sigma, St. Louis, Mo.), 1 uM pepstatin A peptide, (Sigma, St. Louis, Mo.), 10 uM elastatinal peptide, (Sigma, St. Louis, Mo.), 100 uM antipain peptide, (Sigma, St. Louis, Mo.)]. The cells are lysed by sonification with a Branson Sonifier (Model #250, Branson Ultrasonics Corporation, Danbury, Conn.) in 2 fifteen second bursts. Unlysed cells and debris are removed by centrifugation, at 100×g for 10 min. Membranes are then harvested by centrifugation at 45,000×g for 30 minutes. […] Resuspended membranes are then stored frozen at −80° C. until use.
Binding Assay: Frozen membranes prepared as above are thawed and diluted to 1 mg protein per ml in Buffer A above. […] The membranes with bound ^3H-prostaglandin E2 are trapped by the filter, while the buffer and unbound ^3H-prostaglandin E2 pass through the filter into waste. Each sample is then washed 3 times with 3 ml of [50 mM Tris-HCl (pH 7.4), 10 mM MgCl2, 1 mM EDTA]. The filters are then dried by heating in a microwave oven.
Typically, PCR (polymerase chain reaction) primers corresponding to the 5′ and 3′ ends of the published full length receptor are made according to the well known methods disclosed above and are used in an RT-PCR reaction using the total RNA from human kidney (for EP1), human lung (for EP2), human lung (for EP3) or human lymphocytes (for EP4) as a source. PCR products are cloned by the TA overhang method into pCR2.1 (Invitrogen, Carlsbad, Calif.) and identity of the cloned receptor is confirmed by DNA sequencing.
Stable cell lines expressing the receptor are established following selection of transfected cells with G418.

T1 sequence (P43116 whole entry): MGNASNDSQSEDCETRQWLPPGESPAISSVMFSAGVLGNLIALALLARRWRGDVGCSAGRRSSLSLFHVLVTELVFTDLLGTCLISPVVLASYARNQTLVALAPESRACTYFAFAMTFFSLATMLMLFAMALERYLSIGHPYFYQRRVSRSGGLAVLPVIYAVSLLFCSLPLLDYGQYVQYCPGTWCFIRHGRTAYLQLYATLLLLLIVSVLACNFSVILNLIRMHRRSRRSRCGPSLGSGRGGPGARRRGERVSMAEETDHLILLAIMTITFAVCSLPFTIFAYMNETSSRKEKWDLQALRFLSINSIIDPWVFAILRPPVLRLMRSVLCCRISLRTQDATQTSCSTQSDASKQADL

IC50	Structure (SMILES)
0.008 µM	O=C(O)Cc1cccc(CN(Cc2ccc(-c3ncccn3)cc2)S(=O)(=O)c2cccnc2)c1 [Example 1t, (3-(((Pyridine-3-sulfonyl)-(4-pyrimidin-2-yl-benzyl)-amino)-methyl)-phenyl)-acetic acid]
0.007 µM	O=C(O)Cc1cccc(CN(Cc2ccc(-c3nccs3)cc2)S(=O)(=O)c2cccnc2)c1 [Example 1u, (3-(((Pyridine-3-sulfonyl)-(4-thiazol-2-yl-benzyl)-amino)-methyl)-phenyl)-acetic acid]
0.009 µM	Cn1cnc(S(=O)(=O)N(Cc2ccc(-c3nccs3)cc2)Cc2cccc(CC(=O)O)c2)c1 [Example 1v, (3-(((1-Methyl-1H-imidazole-4-sulfonyl)-(4-thiazol-2-yl-benzyl)-amino)-methyl)-phenyl)-acetic acid]
0.024 µM	CN(C)c1ccc(CN(Cc2cccc(CC(=O)O)c2)S(=O)(=O)c2cccnc2)cc1 [Example 1w, (3-(((4-Dimethylamino-benzyl)-(pyridine-3-sulfonyl)-amino]-methyl)-phenyl)-acetic acid]
0.16 µM	O=C(O)COc1cccc(CN(Cc2ccc(C3CCCCC3)cc2)S(=O)(=O)c2cccnc2)c1 [Example 1x, (3-(((4-Cyclohexyl-benzyl)-(pyridine-3-sulfonyl)-amino)-methyl)-phenoxy)-acetic acid]
0.013 µM	O=C(O)COc1cccc(CN(CCOc2cc(Cl)cc(Cl)c2)S(=O)(=O)c2cccnc2)c1 [Example 1y, (3-(((2-(3.5-Dichloro-phenoxy)-ethyl)-(pyridine-3-sulfonyl)-amino)-methyl)-phenoxy)-acetic acid]
0.019 µM	CN(C)c1ccc(CN(Cc2cccc(OCC(=O)O)c2)S(=O)(=O)c2cccnc2)cc1 [Example 1z, (3-(((4-Dimethylamino-benzyl)-(pyridine-3-sulfonyl)-amino)-methyl)-phenoxy)-acetic acid]
0.045 µM	O=C(O)Cc1cccc(CN(CCOc2cccc(Cl)c2)S(=O)(=O)c2cccnc2)c1 [Example 2, (3-(((2-(3-Chloro-phenoxy)-ethyl)-(Pyridine-3-sulfonyl)-amino]-methyl)-phenyl)-acetic acid]
0.037 µM	O=C(O)Cc1cccc(CN(C/C=C/c2cc(Cl)cc(Cl)c2)S(=O)(=O)c2cccnc2)c1 [Example 2a, Trans-(3-(((3-(3,5-Dichloro-phenyl)-allyl)-(pyridine-3-sulfonyl)-amino)-methyl)-phenyl)-acetic acid]
0.385 µM	O=C(O)Cc1cccc(CN(CCOc2cc(Cl)cc(Cl)c2)S(=O)(=O)c2cccnc2)c1 [Example 2b, (3-(((2-(3.5-Dichloro-phenoxy)-ethyl)-(pyridine-3-sulfonyl)-amino)-methyl)-phenyl)-acetic acid]
0.44 µM	O=C(O)c1ccc(CCCN(CCSc2cccc(Cl)c2)S(=O)(=O)c2cccnc2)s1 [Example 3a, 5-(3-((2-(3-Chloro-phenylsulfanyl)-ethyl)-(pyridine-3-sulfonyl)-amino)-propyl) thiophene-2-carboxylic acid]
0.00783 µM	O=C(O)COc1cccc(CN(Cc2ccc(-c3nccs3)cc2)S(=O)(=O)c2cccnc2)c1 [Example 3b, (3-(((Pyridine-3-sulfonyl)-(4-thiazol-2-yl-benzyl)-amino)-methyl)-phenoxy)-acetic acid.2TFA]
0.225 µM	O=C(O)c1ccc(CCCN(CCCc2cccc(Cl)c2)S(=O)(=O)c2cccnc2)s1 [Example 4, 5-(3-((3-(3-Chloro-phenyl)-propyl)-(pyridine-3-sulfonyl)-amino)-propyl)-thiophene-2-carboxylic acid]
0.795 µM	COc1ccc(S(=O)(=O)N(CCCc2cccc(Cl)c2)CCCc2ccc(C(=O)O)s2)cc1 [Example 4a, 5-(3-((3-(3-Chloro-phenyl)-propyl)-(4-methoxy-benzenesulfonyl)-amino)-propyl)-thiophene-2-carboxylic acid]
0.44 µM	O=C(O)c1ccc(CCCN(CCCc2cccc(Cl)c2)S(=O)(=O)c2cccc3nsnc23)s1 [Example 4b, 5-(3-((Benzo[1,2.5]thiadiazole-4-sulfonyl)-(3-(3-chloro-phenyl)-propyl)-amino)-propyl)-thiophene-2-carboxylic acid]
0.175 µM	O=C(O)c1ccc(CCCN(CCCc2cccc(Cl)c2)S(=O)(=O)Cc2ccccc2)s1 [Example 4d, 5-(3-((3-(3-Chloro-phenyl)-propyl)-phenylmethanesulfonyl-amino)-propyl)-thiophene-2-carboxylic acid]
0.41 µM	O=C(O)c1ccc(CCCN(CCCc2cccc(Cl)c2)S(=O)(=O)c2cccnc2)o1 [Example 4e, 5-(3-((3-(3-Chloro-phenyl)-propyl)-(pyridine-3-sulfonyl)-amino)-propyl)-furan-2-carboxylic acid]
0.705 µM	O=C(O)c1ccc(CCCN(CCCc2cccc(Cl)c2)S(=O)(=O)c2ccc3ccccc3c2)s1 [Example 4f, 5-(3-((3-(3-Chloro-phenyl)-propyl)-(naphthalene-2-sulfonyl)-amino)-propyl)-thiophene-2-carboxylic acid]
0.72 µM	O=C(O)c1ccc(CCCN(CCCc2cccc(Cl)c2)S(=O)(=O)c2cccc3ccccc23)s1 [Example 4g, 5-(3-((3-(3-Chloro-phenyl)-propyl)-(naphthalene-1-sulfonyl)-amino)-propyl)-thiophene-2-carboxylic acid]
0.21 µM	CC(=O)Nc1nc(C)c(S(=O)(=O)N(CCCc2cccc(Cl)c2)CCCc2ccc(C(=O)O)s2)s1 [Example 4h, 5-(3-((2-Acetylamino-4-methyl-thiazole-5-sulfonyl)-(3-(3-chloro-phenyl)-propyl)-amino)-propyl)-thiophene-2-carboxylic acid]
0.98 µM	O=C(O)c1ccc(CCCN(CCCc2cccc(Cl)c2)C(=O)c2cccnc2)s1 [Example 5, 5-(3-((3-(3-Chloro-phenyl)-propyl)-(pyridine-3-carbonyl)-amino)-propyl)-thiophene-2-carboxylic acid]
0.355 µM	O=C(O)c1ccc(CCCN(CCCc2cccc(Cl)c2)C(=O)Cc2ccccn2)s1 [Example 5a, 5-(3-((3-(3-Chloro-phenyl)-propyl)-(pyridin-2-yl-acetyl)-amino)-propyl)-thiophene-2-carboxylic acid]
0.64 µM	O=C(O)c1ccc(CCCN(CCCc2cccc(Cl)c2)C(=O)Cc2cccnc2)s1 [Example 5b, 5-(3-((3-(3-Chloro-phenyl)-propyl)-(Pyridin-3-yl-acetyl)-amino)-propyl)-thiophene-2-carboxylic acid]
0.315 µM	O=C(O)c1ccc(CCCN(CCCc2cccc(Cl)c2)S(=O)(=O)c2ccccc2Cl)s1 [Example 6, 5-(3-((2-Chloro-benzenesulfonyl)-(3-(3-chloro-phenyl)-propyl)-amino)-propyl)-thiophene-2-carboxylic acid]
0.325 µM	Cc1ccc(C)c(S(=O)(=O)N(CCCc2cccc(Cl)c2)CCCc2ccc(C(=O)O)s2)c1 [Example 6a, 5-(3-((3-(3-Chloro-phenyl)-propyl)-(2,5-dimethyl-benzenesulfonyl)-amino)-propyl)-thiophene-2 carboxylic acid]
0.3 µM	O=C(O)c1ccc(CCCN(CCCc2cccc(Cl)c2)S(=O)(=O)CCCCNC(=O)c2ccccc2C(=O)O)s1 [Example 6c, 5-(3-((4-(2-Carboxy-benzoylamino)-butane-1-sulfonyl)-(3-(3-chloro-phenyl)-propyl)-amino)-propyl)-thiophene-2-carboxylic acid]
0.17 µM	O=C(O)c1ccc(CCCN(CCCc2cccc(Cl)c2)S(=O)(=O)c2ccc(-n3ncc(=O)[nH]c3=O)cc2)s1 [Example 6d, 5-(3-((3-(3-Chloro-phenyl)-propyl)-(4-(3,5-dioxo-4,5-dihydro-3H-[1,2,4]triazin-2-yl)-benzenesulfonyl)-amino)-propyl)-thiophene-2-carboxylic acid]
0.325 µM	COC(=O)c1ccccc1S(=O)(=O)N(CCCc1cccc(Cl)c1)CCCc1ccc(C(=O)O)s1 [Example 6e, 5-(3-((3-(3-Chloro-Phenyl)-propyl)-(2-methoxycarbonyl-benzenesulfonyl)-amino)-propyl)-thiophene-2-carboxylic acid]
0.49 µM	O=C(O)c1ccc(CCCN(CCCc2cccc(Cl)c2)S(=O)(=O)c2ccc(Br)cc2)s1 [Example 6f, 5-(3-((4-Bromo-benzenesulfonyl)-(3-(3-chloro-phenyl)-propyl)-amino)-propyl)-thiophene-2-carboxylic acid]
0.35 µM	CCC(C)(C)c1ccc(S(=O)(=O)N(CCCc2cccc(Cl)c2)CCCc2ccc(C(=O)O)s2)cc1 [Example 6g, 5-(3-((3-(3-Chloro-phenyl)-propyl)-(4-(1,1-dimethyl-propyl)-benzenesulfonyl)-amino)-Propyl)-thiophene-2-carboxylic acid]
